Laboratory results reported in patent US12472164B2, “Masitinib for the treatment of sickle cell disease” (AB SCIENCE, priority 2019, dated 2025).

Key:
[1] = tested on: lung tissue of SCD (HbSS) Townes mice; experiment: Lung tissue histology (hematoxylin and eosin; anti-FcεRIα immunostaining) of SCD mice after substance P injection; type: in vivo; conditions: masitinib 100 mg/kg/day via gavage for 4 days prior to substance P
Protocol: The Townes transgenic mouse model was utilized for this study (Wu L C et al., Blood 2006; 108:1183-1188). A total of 18 mice were assigned to 3 treatment groups; namely: SCD (HbSS mice) treated with masitinib (SCD Masitinib—intervention group), untreated SCD mice (SCD—positive control group), and WT mice (WT—negative control group). Mice were administered freshly prepared solutions of substance P (4 to 40 mg/kg) via intravenous injection. Mice in the intervention group were administered masitinib at 100 mg/kg/day via gavage for 4 days prior to injection of substance P. Lung tissue was processed immediately after death by cervical dislocation and fixed in 10% buffered formalin. For analysis of the lung tissue cellular structure, samples were stained with hematoxylin and eosin. For analysis of mast cell infiltration, samples were stained with an anti-FcεRIα primary antibody and a fluorophore secondary antibody. The cause of death was then analyzed. […] Lung tissue sections were stained with hematoxylin and eosin. For immunofluorescence, lung tissue sections were incubated with an anti-FcεRIα primary antibody and then stained with a fluorophore secondary antibody.

[2] = tested on: SCD (HbSS mice), Townes transgenic mouse model; experiment: Substance P-induced vaso-occlusive crisis (VOC) occurrence and overall survival in Townes transgenic sickle mice; type: in vivo
From the text: The Townes transgenic mouse model was utilized for this study (Wu L C et al., Blood 2006; 108:1183-1188). A total of 18 mice were assigned to 3 treatment groups; namely: SCD (HbSS mice) treated with masitinib (SCD Masitinib—intervention group), untreated SCD mice (SCD—positive control group), and WT mice (WT—negative control group).
The HbSS-Townes mouse model was created on a mixed genetic background in which the murine adult α-globin genes were replaced with the human α-globin gene (genotype: Hba hα/hα) and the murine adult β-globin genes were replaced with human sickle βS- and fetal Aγ-globin gene fragments linked together (genotype: Hbb hAγβS/hAγβS) (Nguyen J, et al., Blood 2014; 124(21):4916). HbSS-Townes mice have anemia, a shortened red blood cell half-life of 2.5 days and a severe disease phenotype. Control HbAA-Townes mice were created by replacing the murine globin genes with human α-globin gene (genotype: Hba hα/hα) and linked human βA- and fetal Aγ-globins (genotype: Hbb hAγβA/hAγβA).
Mice were administered freshly prepared solutions of substance P (4 to 40 mg/kg) via intravenous injection.
Mice in the intervention group were administered masitinib at 100 mg/kg/day via gavage for 4 days prior to injection of substance P. […]
Vaso-occlusive crisis (VOC) occurrence and overall survival were analyzed in the mice. […]

## Cc1ccc(NC(=O)c2ccc(CN3CCN(C)CC3)cc2)cc1Nc1nc(-c2cccnc2)cs1 [masitinib, 4-(4-methylpiperazin-1-ylmethyl)-N-[4-methyl-3-(4-pyridin-3ylthiazol-2-ylamino)phenyl]benzamide]
[1]; anti-FcεRIα immunofluorescence, versus untreated SCD mice (FIGS. 2A to 2H)
  Infiltration of lung tissue by FcεRI-positive cells (mast cells): to a far lesser degree
[1]; concluded from limited FcεRI-positive cell infiltration and absent or limited edema
  Development of acute chest syndrome (ACS): did not develop ACS
[1]; hematoxylin and eosin staining, versus untreated SCD mice
  Lung edema: reduced
[2]; SCD mice pretreated with masitinib 100 mg/kg/day via gavage for 4 days prior to injection of substance P, 83% of untreated SCD mice died in the first 3 hours (FIG. 1)
  Overall survival (death): none died
[2]; SCD mice pretreated with masitinib 100 mg/kg/day via gavage for 4 days prior to intravenous injection of substance P, all untreated SCD mice experienced VOC
  Vaso-occlusive crisis (VOC) occurrence: did not present any VOC
